Values quoted from earlier work, collected in patent publication US8536091B2, “System for protection of plants from pathogens using alkamides” (priority 2008, dated 2013).

Tested on: microbial plant pathogens, including bacteria and fungi
Details: in the absence of plants; relatively high levels

Structure (SMILES): C/C=C/C=C\CC/C=C/C(=O)NCC(C)C [affinin, N-isobutyl-deca-2E,6Z,8E-trieneamide]
- in vitro growth inhibition of microbial plant pathogens: inhibit the growth of some microbial plant pathogens
